In ChEMBL document CHEMBL1201862, “PubChem BioAssay data set” (2004):
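Compound exposure: 48 hours, 5 concentrations, 96-well plates. GI50: concentration for 50% inhibition of growth.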 The source made the active and inactive calls. Rule as the data show it: active = GI50 up to about 1.1 µM and inactive = higher.

Legend:
Test in all cases: DTP human tumour cell line panel, 48 h
UACC-62 = tested on: UACC-62
UACC-257 = tested on: UACC-257
U-251 = tested on: U-251
OVCAR-3 = tested on: OVCAR-3
SF-539 = tested on: SF-539
BT-549 = tested on: BT-549
OVCAR-4 = tested on: OVCAR-4
MDA-MB-435 = tested on: MDA-MB-435
SK-MEL-5 = tested on: SK-MEL-5
HL-60 = tested on: HL-60
SNB-19 = tested on: SNB-19
RPMI-8226 = tested on: RPMI-8226
A549 = tested on: A549
A498 = tested on: A498
UO-31 = tested on: UO-31
IGROV-1 = tested on: IGROV-1
MOLT-4 = tested on: MOLT-4
M19-MEL = tested on: M19-MEL
CAKI-1 = tested on: CAKI-1
EKVX = tested on: EKVX

Measured: GI50

Cc1cc2c(Br)cc(Br)c(O)c2nc1C(=O)c1ccccc1
inactive: UACC-62 9.59 µM | UACC-257 24.5 µM | U-251 14.4 µM | OVCAR-3 20.3 µM | SF-539 19.1 µM | BT-549 > 100 µM | OVCAR-4 29.3 µM | MDA-MB-435 43.1 µM | SK-MEL-5 14.5 µM | HL-60 4.4 µM | SNB-19 24.9 µM | RPMI-8226 22.4 µM | A549 14.4 µM | A498 20.7 µM | UO-31 12.2 µM | IGROV-1 21 µM | MOLT-4 24.3 µM | M19-MEL 17.7 µM | CAKI-1 55.8 µM | EKVX > 51.6 µM

CC(C)N(C(=O)C12C3C4C1C1C2C3C41C#N)C(C)C (stereo not given)
inactive: UACC-62 > 100 µM | UACC-257 > 100 µM | U-251 > 100 µM | OVCAR-3 > 100 µM | SF-539 > 100 µM | OVCAR-4 > 100 µM | SK-MEL-5 > 100 µM | HL-60 > 41.4 µM | SNB-19 > 100 µM | RPMI-8226 > 46.7 µM | A549 > 100 µM | A498 > 100 µM | UO-31 > 100 µM | IGROV-1 > 100 µM | MOLT-4 > 100 µM | M19-MEL > 100 µM | CAKI-1 > 100 µM | EKVX > 100 µM

O=C(Nc1cc(C(F)(F)F)ccc1Cl)C(=O)C(C(=O)c1ccc2ccccc2c1)C1OC(=O)c2ccccc21 (stereo not given)
inactive: UACC-62 7.26 µM | UACC-257 10 µM | U-251 2 µM | OVCAR-3 13.9 µM | SF-539 2.08 µM | OVCAR-4 18 µM | SK-MEL-5 7.69 µM | HL-60 11 µM | SNB-19 6.21 µM | RPMI-8226 4.25 µM | A549 9.57 µM | A498 6.55 µM | UO-31 12.4 µM | IGROV-1 23.3 µM | MOLT-4 2.09 µM | M19-MEL 11.8 µM | CAKI-1 7.21 µM | EKVX 13.5 µM

COC1CC(OS(=O)(=O)c2ccc(C)cc2)C(OC(=O)c2ccccc2)C(C)O1 (stereo not given)
inactive: UACC-62 > 100 µM | UACC-257 > 10 µM | U-251 > 10 µM | OVCAR-3 > 10 µM | SF-539 > 10 µM | OVCAR-4 > 10 µM | SK-MEL-5 > 10 µM | HL-60 > 10 µM | SNB-19 > 10 µM | RPMI-8226 > 100 µM | A549 > 10 µM | A498 > 10 µM | UO-31 > 10 µM | IGROV-1 > 10 µM | MOLT-4 > 10 µM | M19-MEL > 10 µM | CAKI-1 > 10 µM | EKVX > 10 µM

C/C=C/C=N/N(C(=O)c1cc([N+](=O)[O-])cc([N+](=O)[O-])c1)C1=NN=C(c2ccccc2)C(c2ccccc2)N1 (stereo not given)
inactive: UACC-62 51.8 µM | UACC-257 26.5 µM | U-251 > 100 µM | OVCAR-3 23.4 µM | SF-539 42.5 µM | OVCAR-4 68.4 µM | SK-MEL-5 27.2 µM | HL-60 18.6 µM | SNB-19 > 100 µM | RPMI-8226 24.4 µM | A549 61.2 µM | A498 > 100 µM | UO-31 43.9 µM | IGROV-1 > 100 µM | MOLT-4 25.7 µM | M19-MEL 21.6 µM | CAKI-1 > 100 µM | EKVX > 100 µM

COc1ccc(C2=C3c4cc(OC)c(OC)cc4CCN3C(=S)SS2)cc1OC
inactive: UACC-62 22 µM | UACC-257 72.4 µM | U-251 61.1 µM | OVCAR-3 > 100 µM | SF-539 > 100 µM | OVCAR-4 48.4 µM | SK-MEL-5 13.3 µM | HL-60 24.4 µM | SNB-19 69 µM | RPMI-8226 63.2 µM | A549 > 100 µM | A498 46.6 µM | UO-31 > 100 µM | IGROV-1 > 100 µM | MOLT-4 > 100 µM | M19-MEL 53.2 µM | CAKI-1 77.6 µM | EKVX > 100 µM
